Results taken from patent US11078496B2, “System for F-box hormone receptor regulated protein expression in mammalian cells” (ICAHN SCHOOL OF MEDICINE AT MOUNT SINAI, priority 2016, dated 2021).

Legend:
human ESCs = experiment: mRNA-Seq of H9 hESCs treated with coronatine; type: cell-based; settings: H9 cells, 50 μM coronatine, 2 days
[1] = tested on: dnMAML1-NLS-GFP-OsJAZ^33 (dnM1-GFP-J); experiment: Coronatine-dependent degradation of dnM1-GFP-J in hESCs (fluorescence microscopy); type: cell-based, human; settings: hESCs harboring pRAIDRS NICD-A and pJAZ dnM1-GFP-J, 50 μM coronatine, 1 day
Description: FIGS. 14A-14C illustrate a dual switch for dissection of NOTCH1 function in hESCs. H9 hESCs were infected with pRAIDRS harboring an shRNA targeting the full-length NOTCH1 receptor and an NICD-AID^47 CDS (“NICD-A”). As a control, cells were infected with pRAIDRS NLS-GFP-AID^47 (“GFP-A”). Cells were maintained with 250 μM auxin to prevent NICD-A accumulation. Following selection and isolation of colonies with ESC morphology, cells were infected with pJAZ dnMAML1-NLS-GFP-OsJAZ^33 (“dnM1-GFP-J”) or pJAZ NLS-GFP-OsJAZ^33 (“GFP-J”) as control and post-selection colonies were expanded. FIG. 14A is a western blot analysis of pRAIDRS GFP-A and NICD-A hESCs maintained in the presence of 250 μM auxin (“IAA”), washed and incubated for 4 h in the presence (+) or absence (−) of auxin. […] Dashed lines mark colony borders. […] Dashed lines indicate instances where coronatine-mediated dnM1-GFP-J degradation restored NICD-A-dependent activity by at least twofold. […] See also FIGS. 13A-13E and 15.
In mice, NOTCH was also implicated in trophectoderm formation (Rayon et al., “Notch and Hippo Converge on Cdx2 to Specify the Trophectoderm Lineage in the Mouse Blastocyst,” Dev. Cell 30:410-422 (2014), which is hereby incorporated by reference in its entirety). […]

CC[C@H]1C=C(C(=O)N[C@@]2(C(=O)O)C[C@@H]2CC)[C@H]2CCC(=O)[C@H]2C1 [coronatine, Coronatine]
effect on global gene expression patterns (human ESCs; mRNA-Seq): does not affect global gene expression patterns
genes with differential expression between coronatine and control samples (human ESCs; P<0.05 and fold change >2 in both replicates): only two genes
degradation of dnM1-GFP-J [1]: effectively induced degradation
